Laboratory results as given in US11026876B2, “Composition for improving skin condition comprising chemokines” (TEGO SCIENCE INC., priority 2016, dated 2021).

B1: thymus-expressed chemokine (protein, UniProt O15444 24-150, looked up)
C-C motif chemokine 25: QGVFEDCCLAYHYPIGWAVLRRAWTYRIQEVSGSCNLPAAIFYLPKRHRKVCGNPKSREVQRAMKLLDARNKVFAKLHHNTQTFQAGPHAVKKLSSGNSKLSSSKFSNPISSSKRNVSLLISANSGL

What was measured:
Format in all cases: cell-based
keratinocytes = assay: Evaluation of chemotaxis of keratinocytes (Transwell insert migration); settings: six hours, FIG. 1; for migration of keratinocytes compared to the negative control: 100 or 500 ng/ml chemokine in lower chamber, vs group not treated with a chemokine; for number of migrated keratinocytes relative to SDF-1α: 100 or 500 ng/ml chemokine, vs SDF-1α positive control
Protocol: The keratinocytes isolated from normal skin tissue were cocultured with 3T3 feeder cells in a DMEM/F12 medium (Invitrogen™, Thermo Fisher Scientific Inc., United States) containing 10% fetal bovine serum (FBS) in a humid environment of 37° C. and 10% CO2. When the cultured cells grew by 70 to 80%, the 3T3 feeder cells were removed and only the keratinocytes were isolated using trypsin-EDTA.
To evaluate chemotaxis of keratinocytes in response to BLC (CXCL13) or TECK (CCL25), cells were cultured using a Transwell® insert (Falcon®, Corning Incorporated, United States) with an opening size of 8 μm, and the number of cells migrated passing through micropores in the insert toward the chemokine were counted. Specifically, the lower chamber of the insert was treated with a chemokine (100 or 500 ng/ml BLC (CXCL13) or 100 or 500 ng/ml TECK (CCL25)), and then cells were placed in wells of the insert in a ratio of 1×10^4 cells per well. After cell incubation in a humid environment of 37° C. and 10% CO2 for six hours, the insert membrane was stained with hematoxylin, and then the number of migrated cells were counted.

[1] = tested on: wound on Neoderm®-ED three-dimensional skin culture model; assay: Wound-healing effect (re-epithelialization) in three-dimensional skin culture model; settings: 500 ng/ml chemokine, five days, FIG. 2; for length of re-epithelialization compared to the negative control: 4-mm biopsy punch wound, vs untreated group; for length of re-epithelialization relative to SDF-1α: vs SDF-1α
Protocol: A Neoderm®-ED (TEGO Science, Korea) consisting of the dermis including collagen and fibroblasts and the epidermis including keratinocytes was prepared. A wound was induced on the Neoderm®-ED using a 4-mm biopsy punch, and the wound was treated with a 500 ng/ml chemokine (BLC (CXCL13) or TECK (CCL25)) and incubated in a humid environment of 37° C. and 10% CO2 for five days. The cultured Neoderm®-ED tissue was separated from insert wells and stained with hematoxylin and eosin (H&E staining). The stained tissue was placed on a glass slide and photographed under a microscope. The obtained images were analyzed using Image-Pro™ image analysis software (Media Cybernetics, Inc., United States) to measure a length of re-epithelialization of the wound.

[2] = tested on: proliferation marker Ki-67; assay: Expression of proliferation marker Ki-67 in three-dimensional skin culture model (immunofluorescence); settings: 100 ng/ml chemokine, 48 hours, Neoderm®-ED, FIGS. 3 and 5; for expression of proliferation marker Ki-67 compared to SDF-1α: vs SDF-1α; for expression of proliferation marker Ki-67 compared to the negative control: vs untreated group
Protocol: (§1) To evaluate the effects of skin regeneration and skin elasticity improvement, a Neoderm®-ED was treated with a 100 ng/ml chemokine (BLC (CXCL13) or TECK (CCL25)) and incubated in a humid environment of 37° C. and 10% CO2 for 48 hours. Then, the Neoderm®-ED was reacted with primary antibodies that bind to markers (i.e., proliferation marker Ki-67 and collagen IV) used to confirm the ability to induce skin regeneration and skin elasticity and then with secondary antibodies labeled with a fluorescent substance. Cell nuclei were stained with 4′,6-diamidino-2-phenylindole (DAPI).

collagen IV = assay: Expression of collagen IV in three-dimensional skin culture model (immunofluorescence); settings: 100 ng/ml chemokine, 48 hours, Neoderm®-ED, FIG. 4; for expression of collagen IV compared to SDF-1α: vs SDF-1α; for expression of collagen IV compared to the negative control: vs untreated group
Protocol: as §1

| Molecule | migration of keratinocytes compared to the negative control (keratinocytes) | number of migrated keratinocytes relative to SDF-1α (keratinocytes) | length of re-epithelialization compared to the negative control [1] | length of re-epithelialization relative to SDF-1α [1] | expression of proliferation marker Ki-67 compared to SDF-1α [2] | expression of proliferation marker Ki-67 compared to the negative control [2] | expression of collagen IV compared to SDF-1α (collagen IV) | expression of collagen IV compared to the negative control (collagen IV) |
| --- | --- | --- | --- | --- | --- | --- | --- | --- |
| B lymphocyte chemoattractant [BLC (CXCL13)] | increased | at least five times more | significantly greater length | at least a three times greater length | increased more significantly | increased | increased more significantly | increased |
| B1 | increased | at least five times more | significantly greater length | at least a three times greater length | increased more significantly | increased | increased more significantly | increased |
